pEC50: −log10 of the molar value. Like-named read-outs stand apart in the source and are kept apart here.
Assays:
[1] = tested on: mHTT protein in GM04724 (CAG 70/20) Huntington's disease patient lymphoblast cells; assay: mHTT protein assay, 2B7-MW1 assay via Mesoscale Discovery (MSD); format: cell-based, human
How it was run: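 Patient lymphoblasts treated 48 h with compound from 10 μM to 0.6 nM. mHTT quantified by MSD 2B7-MW1 immunoassay, whose signal depends on polyQ expansion and HTT size. Viability measured on a replicate plate by CellTiter Glo.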

[2] = tested on: SMN FL and SMN Δ7 in spinal muscular atrophy (SMA) patient fibroblasts (GM03813, Coriell); assay: Quantitative splicing assay (SMN), qPCR; format: cell-based, human; settings: Homo sapiens, Fibroblast, 24 h, read-out: SMN2 Splicing FL EC50
Procedure: Spinal muscular atrophy (SMA) patient fibroblasts (GM03813, Coriell) are plated in 96-well plates at 50,000 cells/well. […] Treated cells are lysed and cDNA synthesized using the Fast Advanced Cells-to-Ct kit (Thermofisher A35378) according to the manufacturer's instructions. 2 μL of each cDNA are used in qPCR reactions. […] Reactions are run in a Quant Studio 6 qPCR instrument with default settings.

[3] = tested on: SMN protein in spinal muscular atrophy (SMA) patient fibroblasts (GM03813, Coriell); assay: SMN protein assay, Mesoscale Discovery (MSD); format: cell-based, human; settings: read-out: SMN2 protein EC50
How it was run: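 SMA patient fibroblasts (GM03813) seeded at 7000 cells/well and exposed to compound at 2.5 μM to 0.6 nM for 48 hours. Lysates assayed for SMN by MSD immunoassay, with absolute SMN amount calculated from a per-plate SMN standard curve (1 μg/ml to 19.5 pg/ml).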

MDR1 (P-gp) = assay: Blood-brain-barrier (BBB) penetration potential via MDCK-MDR1 permeability assay; settings: dog; for Papp A→B at 120 min, 5 μM: MDCK-MDR1, pH 7.4, MDCK-MDR1: Papp A-B; for Papp B→A at 120 min, 5 μM: MDCK-MDR1, pH 7.4, MDCK-MDR1: Papp B-A
[4] = tested on: MDR1-MDCK cell monolayers; assay: as above
MDR1 = assay: as above; settings: dog, MDCK-MDR1, pH 7.4, MDCK-MDR1: Efflux
[5] = Quantitative splicing assay (HTT), qPCR; format: cell-based, human; settings: Homo sapiens, GM04724, 24 h, GM04724 lymphoblasts, read-out: HTT Splicing: E49-50 EC50
How it was run: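 Patient lymphoblasts (50,000 cells/well) dosed immediately after plating for 24 h at 2.5 uM to 0.15 nM in 0.1% DMSO. Lysed, cDNA made directly from cells, and inclusion of the intron 49 cryptic exon quantified by TaqMan qPCR.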

[6] = GM04724 Huntington's disease patient lymphoblasts
[7] = SMA patient fibroblasts GM03813, 24 h, qPCR
[8] = SMA patient fibroblasts GM03813, 48 hours, MSD

| SMILES | pEC50 [1, 6] | pEC50 [2, 7] | pEC50 [3, 8] | Papp A→B at 120 min, 5 μM (MDR1 (P-gp); A-B direction) | Papp B→A at 120 min, 5 μM (MDR1 (P-gp); B-A direction) | MDCK-MDR1: % Recov A-B ([4]; A-B direction) | MDCK-MDR1: % Recov B-A ([4]; B-A direction) | efflux ratio at 120 min, 5 μM (MDR1; efflux ratio) | pEC50 ([5]; qPCR) | pEC50 ([1]; GM04724 (CAG 70/20) Huntington's disease patient lymphoblasts) | pEC50 ([2]; SMA patient fibroblasts (GM03813)) | pEC50 ([3]; SMA patient fibroblasts (GM03813), 48 hours) | Papp A→B at 120 min, 5 μM (MDR1 (P-gp); A-B) | Papp B→A at 120 min, 5 μM (MDR1 (P-gp); B-A) | MDCK-MDR1: % Recov A-B ([4]; A-B) | MDCK-MDR1: % Recov B-A ([4]; B-A) | efflux ratio at 120 min, 5 μM (MDR1) | pEC50 [5] |
| --- | --- | --- | --- | --- | --- | --- | --- | --- | --- | --- | --- | --- | --- | --- | --- | --- | --- | --- |
| CN(c1ccc(-c2cc3oc(=O)n(C)c3cc2O)nn1)[C@@H]1C[C@H]2CC[C@H](N2)[C@@H]1F (single isomer, unassigned) [Compound 79A] | 7.82 to 11.00 | 7.30 to 7.80 | 7.82 to 11.00 | 25.1 nm/s | 349 nm/s | 89% | 99% | 14 | 7.30 to 7.80 | – | – | – | – | – | – | – | – | – |
| Cc1ccc(-c2ccc(-c3ccc(N(C)[C@H]4C[C@@H]5CCC[C@@H](N5)[C@H]4F)nn3)c(O)c2)nn1 [Compound 27B, 2-(6-(((1R,2R,3S,5S)-2-fluoro-9-azabicyclo[3.3.1]nonan-3-yl)(methyl)amino)pyridazin-3-yl)-5-(6-methylpyridazin-3-yl)phenol] | 7.82 to 11.00 | 7.82 to 11.00 | 7.82 to 11.00 | 11.3 nm/s | 435 nm/s | 98% | 115% | 38 | 7.30 to 7.80 | – | – | – | – | – | – | – | – | – |
| COc1cnc(-c2ccc(-c3ccc(N(C)[C@H]4C[C@@H]5CCC[C@@H](N5)[C@H]4F)nn3)c(O)c2)cn1 [Compound 29B, 2-(6-(((1R,2R,3S,5S)-2-fluoro-9-azabicyclo[3.3.1]nonan-3-yl)(methyl)amino)pyridazin-3-yl)-5-(5-methoxypyrazin-2-yl)phenol] | 7.82 to 11.00 | 5.00 to 6.30 | 7.82 to 11.00 | 15.4 nm/s | 56.3 nm/s | 21% | 48% | 4 | 7.30 to 7.80 | – | – | – | – | – | – | – | – | – |
| CN(c1ccc(-c2ccc(-n3cnc(Cl)c3)cc2O)nn1)C1CC2CC(F)(F)C(C1)N2 (single isomer, unassigned) [Compound 37A] | 7.30 to 7.80 | 7.30 to 7.80 | 7.30 to 7.80 | 173 nm/s | 344 nm/s | 52% | 69% | 2 | 7.82 to 11.00 | – | – | – | – | – | – | – | – | – |
| CCN(c1ccc(-c2ccc(-c3cn[nH]c3)cc2O)nn1)[C@H]1C[C@@H]2CC[C@@H](N2)[C@H]1F [Compound 12B, 2-(6-(ethyl((1R,2R,3S,5S)-2-fluoro-8-azabicyclo[3.2.1]octan-3-yl)amino)pyridazin-3-yl)-5-(1H-pyrazol-4-yl)phenol] | 7.82 to 11.00 | 7.82 to 11.00 | 7.82 to 11.00 | 7 nm/s | 301 nm/s | 57% | 52% | 43 | 7.82 to 11.00 | – | – | – | – | – | – | – | – | – |
| Cc1nc2cc(O)c(-c3ccc(N(C)[C@@H]4C[C@H]5CC[C@H](N5)[C@@H]4F)nn3)cc2s1 [Compound 116A, 6-(6-(((1S,2S,3R,5R)-2-fluoro-8-azabicyclo[3.2.1]octan-3-yl)(methyl)amino)pyridazin-3-yl)-2-methylbenzo[d]thiazol-5-ol] | – | – | – | – | – | – | – | – | – | 7.82 to 11.00 | 7.00 to 7.29 | 7.82 to 11.00 | 43.9 nm/s | 429 nm/s | 86% | 88% | 10 | 7.30 to 7.80 |
| CN(c1ccc(-c2ccc(-c3cnn(C)c3)cc2O)nn1)[C@@H]1C[C@H]2CCC[C@H](N2)[C@H]1F [Compound 14A, 2-(6-(((1S,2R,3R,5R)-2-fluoro-9-azabicyclo[3.3.1]nonan-3-yl)(methyl)amino)pyridazin-3-yl)-5-(1-methyl-1H-pyrazol-4-yl)phenol] | 7.30 to 7.80 | 7.00 to 7.29 | 7.82 to 11.00 | 30 nm/s | 424 nm/s | 59% | 83% | 14 | 7.30 to 7.80 | – | – | – | – | – | – | – | – | – |

Reference: patent US12509460B2 (Skyhawk Therapeutics, Inc., priority 2019, dated 2025)
